PubChem BioAssay AID1963838 (Molecular Pharmacology Branch, DTP, NCI, 2024)
Where “and” joins values, the source holds several entries; their conditions need not be identical. Identical values can stand only once.

Tested on: 855422-203-R-J1-PDC complex spheroid viability
Assay: Anticancer human tumor 855422-203-R-J1-PDC patient-derived bladder carcinoma cell line growth inhibition [POLQ]
Conditions: for viability, T/C: stronger effect = lower value
Method: Multicellular complex tumor spheroid response to Polymerase (POL) inhibitors (novobiocin, ART-558, RP6685) in combination with a variety of drugs and investigational agents in selected tumor cell lines
The POL inhibitors (novobiocin, ART-558, and RP6685) were evaluated both individually and in combination with standard of care and investigational anticancer small molecules within a complex spheroid model of solid tumors. . Complex spheroids include a stromal component modeled by human endothelial cells (HUVEC) and fibroblasts modeled by human mesenchymal stem cells (MSCs). The concentration ranges selected for each drug and investigational agent were based upon clinically achievable concentrations if the clinical Cmax of the agent was known.
Compounds. The drugs and investigational agents: novobiocin (NSC847541), ART-558 (NSC835418), RP-6685 (NSC848927), peposertib (NSC802822), ceralasertib (NSC780249), elimusertib (NSC800525), camonsertib (NSC841442), AZD-1390 (NSC803789), olaparib (NSC753686), talazoparib (NSC767125), rucaparib (NSC756644), sotorasib (NSC818433), MRTX-1133 (NSC836407), SN-38 (NSC673596), topotecan (NSC609699), epotoside (NSC141540), doxorubicin (NSC123127), gemcitabine (NSC613327), 5-fluorouracil (NSC19893), paclitaxel (NSC125973), vemurafenib (NSC761431), MSA-2 (NSC828583), SN-011 (NSC837082), adavosertib (NSC754352), prexasertib (NSC758257), carboplatin (NSC241240) and oxaliplatin (NSC266046), were obtained from the National Cancer Institute (NCI) Developmental Therapeutics Program Chemical Repository (21). The FDA-approved anticancer drug set is available from the Developmental Therapeutics Program at https://dtp.cancer.gov/organization/dscb/obtaining/. […] The stock solutions were prepared in dimethyl sulfoxide (DMSO, Sigma-Aldrich, St. Louis, MO, cat. D2650), except for the platinum compounds which were prepared in saline (Quality Biological, Gaithersburg, MD, cat. 114-055-101), at 800-fold the tested concentration and stored at -70 degrees C prior to their use. All drugs and investigational agents were tested over a range starting from a high concentration at or near the clinical Cmax and decreasing in half-log increments. If the clinical Cmax for an agent had not been determined, the highest concentration tested was 10 microM, except for SN-38, which was tested at a high concentration of 1 microM.
Cell Culture. All cells were maintained in an incubator at 37 degrees C and 5% CO2 with 95% humidity. The PDC lines were cultured according to standard operating procedures established by the NCI PDMR (https://pdmr.cancer.gov). Table 3 of the manuscript, lists the cell lines along with the number of the three cell types plated to form the mct-spheroids and media for tumor cell growth. After thawing, all PDC lines, except 997537-175-T-J1-PDC and 415267-285-R-J2-PDC, were cultured in Matrigel-coated flasks prepared with a working solution of 1X Ham's F-12 nutrient mix, without supplementation (Thermo Fisher Scientific, cat. 11765054), 100 U/mL penicillin-streptomycin (Thermo Fisher Scientific, cat. 15140122), and 2.5% Matrigel (Corning Inc., Corning, NY, cat. 354248) for the first three passages. The two PDC lines 997537-175-T-J1-PDC and 415267-285-R-J2-PDC were cultured on uncoated flasks. The 857933-349-R-J2-PDC line was cultured in 6C/Colon 1B media containing advanced DMEM/F-12 (Thermo Fisher Scientific, cat. 12634028), 10 mM HEPES (Thermo Fisher Scientific, cat. 15630080), 1X GlutaMAX supplement (Thermo Fisher Scientific, cat. 35050061), 0.1 mg/mL primocin (InvivoGen, San Diego, CA, cat. ant-pm-2), 10% defined fetal bovine serum, heat inactivated (HyClone Laboratories Inc., Logan, UT, cat. SH30070.03HI), 50% L-WRN conditioned media (ATCC, cat. CRL-3276), 1.25 mM N-Acetyl-L-cysteine (Sigma-Aldrich, cat. A9165), 10 mM nicotinamide (Sigma-Aldrich, cat. N0636), 1X B-27 supplement (Thermo Fisher Scientific, cat. 17504044), 1X N-2 supplement (Thermo Fisher Scientific, cat. […]

[1] = compound alone, run of 01/08/2024
[2] = compound alone, run of 01/19/2024
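Note: spheroids exposed to compounds for seven days before readout.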

Compound	viability, T/C (compound 0.0316 µM)	viability, T/C (compound 0.1 µM)	viability, T/C (compound 0.316 µM)	viability, T/C (compound 1 µM)	viability, T/C (compound 3.16 µM)	viability, T/C (compound 10 µM)	IC50 (curve of compound)	IC50 [1] [µM]	viability, T/C (compound 0.00316 µM)	viability, T/C (compound 0.01 µM)	IC50 [2] [µM]	viability, T/C (compound 0.000316 µM)	viability, T/C (compound 0.001 µM)
CNCc1ccc(-c2[nH]c3cc(F)cc4c3c2CCNC4=O)cc1	98.8% and 101% and 112%	98.1% and 100% and 101%	114% and 108% and 99.2%	115% and 103% and 99.8%	105% and 88.8% and 114%	114% and 137% and 126%	> 10 µM						
COC1C(OC(N)=O)C(O)C(Oc2ccc3c(O)c(NC(=O)c4ccc(O)c(CC=C(C)C)c4)c(=O)oc3c2C)OC1(C)C (stereo unspecified)	105% [middle of 13 runs]	108% [middle of 13 runs]	111% [middle of 13 runs]	106% [middle of 13 runs]	104% [middle of 13 runs]			> 10					
COc1cc(C2c3cc4c(cc3C(OC3OC5COC(C)OC5C(O)C3O)C3COC(=O)C23)OCO4)cc(OC)c1O (stereo unspecified)	99.8% and 116% and 97.3%	92.7% and 114% and 91%	31.5% and 78.4% and 34%	9.39% and 19.9% and 12.1%	7.03% and 8.72% and 9.59%	4.41% and 6.81% and 5.26%	0.224 µM and 0.553 µM and 0.229 µM						
COc1cc2cc(C(=O)CCC(=O)O)sc2cc1OC	93.5% and 102% and 106%	128% and 88.2% and 104%	98.3% and 108% and 107%	97.8% and 87.2% and 98.9%	111% (2×) and 106%	112% and 119% and 102%	> 10 µM						
COc1ccc([C@@H](O)c2cc(-c3ncnc4cc(N5CCOCC5)ccc34)c(F)cc2Cl)nn1	86.6% and 104% and 118%	103% and 107% and 96.5%	94.5% and 103% and 109%	87.2% and 91.5% and 88.8%	60.9% and 109% and 69.5%	32% and 58.2% and 37.4%	4.87 µM and > 10 µM and 6.35 µM						
COc1cccc(OCCCN)c1-c1cc(Nc2cnc(C#N)cn2)n[nH]1	12.2% and 23.8% and 37.9%	9.96% and 13.6% and 17.5%	5.57% and 7.75% and 6.55%	4.87% and 6.23% and 5.82%			0.0177 µM and 0.023 µM and 0.0266 µM		108% and 98.1% and 104%	86.8% and 138% and 132%			
COc1cccc2c1C(=O)c1c(O)c3c(c(O)c1C2=O)CC(O)(C(=O)CO)CC3OC1CC(N)C(O)C(C)O1 (stereo unspecified)	20.9% and 28.2% and 13.1%	9.22% and 14.2% and 10.2%	3.11% and 2.95% and 2.47%	0.45% and 0.73% and 0.38%	0.69% and 0.96% and 0.43%	3.06% and 2.86% and 1.27%	< 0.0316 µM						
Cc1cccc(N(C)C(=O)C2C(O)CCN2c2nc(C)cc(C(F)(F)F)c2C#N)c1 (stereo unspecified)	107% [middle of 13 runs]		106% [middle of 13 runs]	102% [middle of 13 runs]	102% [middle of 13 runs]	103% [middle of 13 runs]		> 10			> 10		
Cn1ncnc1[C@H]1c2n[nH]c(=O)c3cc(F)cc(c23)N[C@@H]1c1ccc(F)cc1	102% and 93.4% and 118%	96.6% and 134% and 88.6%					> 0.1 µM		108% and 105% and 111%	108% and 122% and 110%		108% and 99.8% and 105%	97% and 116% and 97.1%
Nc1ccc(C#CCN(C(=O)Cc2ncc(C(F)(F)F)cc2C(F)(F)F)c2ccc(F)cc2)nn1	101% [middle of 13 runs]	104% [middle of 13 runs]	107% [middle of 13 runs]		95.7% [middle of 13 runs]	90.4% [middle of 13 runs]					> 10		
Nc1ccn(C2OC(CO)C(O)C2(F)F)c(=O)n1 (stereo unspecified)	81.1% and 75.1% and 69.6%	41.7% and 19.3% and 37.9%	17.7% and 14.3% and 12.9%	13.3% and 13.5% and 11.3%	7.69% and 9.12% and 7.82%	6.31% and 7.6% and 6.51%	0.0777 µM and 0.0531 µM and 0.0642 µM						
O=C(Nc1ccc(O)c(NS(=O)(=O)c2ccc(F)cc2)c1)c1ccc(-c2ccccc2)cc1	106% and 92.6% and 110%	118% and 99.2% and 113%	98.8% and 110% and 113%	112% and 108% and 97.7%	99.4% and 106% and 92.8%	74% and 70.5% and 45.6%	> 10 µM and 9.08 µM						
O=C(c1cc(Cc2n[nH]c(=O)c3ccccc23)ccc1F)N1CCN(C(=O)C2CC2)CC1	109% and 103% and 94%	107% and 106% and 112%	92.1% and 100% and 112%	108% and 103% and 98.3%	106% and 98.1% and 124%	82.5% and 70% and 121%	> 10 µM						
O=c1[nH]cc(F)c(=O)[nH]1	116% and 95.4% and 99.2%	105% and 104% and 102%	61.8% and 118% and 55.4%	32.8% and 67% and 34.3%	29.6% and 40.2% and 26.3%	23.3% and 44.2% and 22.9%	0.507 µM and 2.2 µM and 0.405 µM						
